Assay results from patent publication US20050119301A1, “Treatment of restenosis” (priority 2001, published 2005).
Values joined by “and” are separate entries in the source; they are usually repeats but may differ in a detail not shown here. Equal entries are not always repeated.

Legend:
[1] = a-tocopheroxyl radical attenuating ability (TRAA) assay in micelles; assay type: biochemical; settings: for TRAA, HTAC Micelle (positive) / TRAA, SDS Micelle (negative): 10 μM, relative rate constant of a-tocopheroxyl radical decay with/without sample, large = active
Experimental: The a-tocopheroxyl radical attenuating ability (TRAA) assay has been described in detail by Witting et al. (1997). Briefly, one hundred mM stock solutions of cetyltrimethyl ammonium chloride (HTAC) and sodium dodecyl sulphate (SDS) were prepared in phosphate buffer. Micellular dispersions of a-tocopherol were prepared by diluting an ethanolic solution of a-tocopherol (0.2 M) into micelles at a final vitamin concentration of […]. This resulting solution was sonicated for 15 sec at which time it was completely homogenous.
Aliquots of the a-tocopherol-containing micells were placed into the neck of an ESR flat cell […] and placed 0.5 m from a 125 W Osram HQL-Mercury fluorescent bulb used as a UV light source. To increase the light intensity, the frosted casing of the bulb was removed. Samples were irradiated for 3 min, followed by thorough mixing and subsequent transfer of the flat cell to the corresponding temperature-controlled Dewar insert in the ESR cavity, where the sample was allowed to equilibrate to 37° C. This procedure afforded a-tocopheroxyl radical (a-TO) between […] as estimated against a 10 mM TPDI nitroxide standard. ESR spectra were obtained at 9.41 GHz with modulation amplitude 1.0 G, microwave power […], and modulation frequency 12.5 kHz using a Bruker ESP 300 ESR spectrometer fitted with an X-band cavity.
After accumulation of the T=0 min spectrum, the flat cell arrangement containing a-TO was removed from the ESR cavity and the solution was gently coaxed into the neck of the flat cell under positive pressure. The compound of choice was then added to give a final concentration of 10 mM and the treated sample was replaced in the cavity and allowed to equilibrate to standard conditions, and sampling was resumed. The time-dependent decay of ESR signal intensity for a-TO was measured both in the presence and absence of the added co-antioxidant (10 mM) using a sweep time of 20.5 sec, averaging the output from three successive sweeps at each time point, and averaging the results of three separate experiments.
Results are expressed as the relative rate constant of decay of a-tocopheroxyl radicals in the presence of the test sample divided by the relative rate constant of decay of a-tocopheroxyl radicals in the absence of the test sample. TRAA approaching unity is considered to have poor synergistic activity, whereas active compounds show large values because they eliminate the a-tocopheroxyl radicals immediately upon mixing. Ascorbate was used as a positive control.

human LDL = assay: Prevention of tocopherol-mediated peroxidation (anti-TMP test); assay type: biochemical; settings: 10 mM
Experimental: The test indirectly assesses the ability of a compound to synergise with a-tocopherol in human LDL undergoing mild and chemically controlled oxidation. Oxidation is measured by the accumulation of cholesterol ester hydroperoxides at a time point corresponding to 20% consumption of endogenous a-tocopherol.
Briefly, ascorbate and ubiquinol-10-free LDL (1 mM in apoB) was supplemented with an aliquot of a stock solution of the compound to be tested. The mixture was incubated at 37° C. for 10 min and subsequently oxidized at 37° C. with a low flux of water-soluble ROO generated from AAPH (4 mM). The time-dependent consumption of LDL a-tocopherol and accumulation of cholesteryllinolate hydroperoxide (Ch18:2-OOH) were monitored by HPLC with electrochemical and post-column chemiluminescence detection, respectively. The effectiveness of an antioxidant, assigned as its anti-TMP index (redox index), was defined as the relative amounts of Ch18:2-OOH formed with versus without the added antioxidant measured after 20% consumption of the endogenous a-tocopherol in the control sample (ie. in the absence in the antioxidant). […] Butylated hydroxytoluene (BHT, 10 mM) was used as a positive control.

LDL = LDL antioxidation test (CuCl2-initiated LDL oxidation, lag time); assay type: biochemical, human; settings: 10 mM; Promensil 5 mg/ml
Experimental: The LDL antioxidation test measures the ability of a compound to directly scavenge free radicals or to chelate transition metals. Thus in this series of experiments, the isoflavones and their derivatives were tested for their ability to act as free radical scavengers.
Fresh whole blood was obtained by venipuncture from healthy human volunteers under 25 years of age and supplemented immediately with EDTA (91 mg/ml) and BHT (4.4 mg/ml). LDL was prepared by step-wise ultracentrifugation within a density gradient of 1.02-1.05 g/cm^3. EDTA and BHT were present throughout all the steps of the isolation. The EDTA/BHT containing stock solution (15-30 mg LDL/ml) was stored in the dark in a nitrogen atmosphere until use, but never longer than two weeks.
Before oxidation experiments, the LDL stock solution was dialyzed in the 100-fold volume of 0.01 M phosphate buffer pH 7.4, 0.16 M NaCl, 0.1 mg/ml chloroamphenicol, which was made oxygen-free by vacuum degassing following by purging with nitrogen. The buffer was changed four times. This EDTA- and BHT-free LDL stock solution was used for all oxidation studies. The stock solution was stored not longer than 24 hr at 4° C. For performing the oxidation experiments, the EDTA- and BHT-free LDL stock solution was diluted with oxygen-saturated 0.01 M phosphate buffer pH 7.4, 0.16 M NaCl and the oxidation was initiated by the addition of a freshly prepared aqueous CuCl2 solution. The final conditions were in all experiments: room temperature, 0.25 mg LDL/ml and […] (see Esterbauer et. al., 1989)
The antioxidant activities of the following compounds were tested: daidzein ([…]), genistein ([…]), glycitein ([…]), biochanin ([…]), formononetin ([…]), Promensil™ (Novogen) (2.5 mg/ml, 5 mg/ml), Cpd. 5 (10 mM), Cpd. 7 (10 mM), Cpd. 8 (10 mM), Cpd. 12 (10 mM), Cpd. 4 (10 mM) and Cpd. 6 (10 mM). In each experiment, controls were used to compare the relative effectiveness of the Novogen isoflavone derivatives to common and well-known antioxidants such as ascorbate (2.5 mM; Vitamin C).

## O=C1c2ccc(O)cc2OCC1c1ccc(O)cc1 (centres unmarked) [Cpd. 5]
[1]
  TRAA, HTAC Micelle (positive): 5.3 and 5.4

## Oc1ccc(C2COc3cc(O)ccc3C2O)cc1 (centres unmarked) [Cpd. 7]
Human LDL
  LDL protective action in the presence of Vitamin E (in words): low levels of activity
[1]
  TRAA, HTAC Micelle (positive): 1.4 ± 0.5
  TRAA, SDS Micelle (negative): 1.9 ± 0.2
LDL
  ability to scavenge free radicals (in words): significantly less active than Cpd. 8 and Cpd. 12 but still almost as active as ascorbate

## Oc1ccc(C2COc3cc(O)ccc3C2O)cc1 (centres unmarked) [Cpd. 8]
Human LDL
  LDL protective action in the presence of Vitamin E (in words): low levels of activity
[1]
  TRAA, HTAC Micelle (positive): 2.37
  TRAA, SDS Micelle (negative): 1.26 and 1.58
LDL
  ability to scavenge free radicals (in words): very active scavengers

## Oc1ccc(C2=Cc3ccc(O)cc3OC2)cc1 [Cpd. 12]
Human LDL
  LDL protective action in the presence of Vitamin E (in words): strong LDL protective action (low redox index)
[1]
  elimination of a-tocopheroxyl radicals (in words): induced high rate of decay and was active at eliminating a-tocopheroxyl radicals
  TRAA, HTAC Micelle (positive): 26.77 and 25.70
  TRAA, SDS Micelle (negative): Almost immediate
LDL
  ability to scavenge free radicals (in words): very active scavengers
